Our source for the viability values is PMC12040169 (PLOS Biology, 2025).

The nature of the data set: in vitro. To be noted: human, hela cells, % viability.

SMILES strings stand for the structures.

One may read the viability as a read-out of living cells in per cent, often relative to untreated cells. Consider `COc1cc(OC)c2c(c1)OC1(CCN(C(=O)C3CCCO3)CC1)CC2=O` (stereo not shown) [CBK156476], for which the viability at 28.5 h, 10 µM worked out at 93.3%.
`Cc1ccc(C(=O)N2CCC(Cc3ccccc3)CC2)cn1` [CBK200179]: the viability at 28.5 h, 10 µM was determined as 94.7%.
The value for `CSc1ccc(CN2CCN(S(=O)(=O)Cc3ccccc3)CC2)cc1` [CBK264301G] was 94.2%; that for `O=C(NC1Cc2ccccc2C1)c1nccc2ccccc12` [CBK200356] was 97%.
The value for `CN1CCN(C(=O)c2ccc(Cl)c(S(=O)(=O)N3CCCCC3)c2)CC1` [CBK262228] was 94.7%.
The value for `Cc1cc(C)n(C(=O)c2cn3cc(Cl)ccc3n2)n1` [CBK288185] was 98.6%; that for `COc1ccc(NC(=O)c2ccc(-c3nnn[nH]3)cc2)cc1Cl` [CBK295139] was 114%; that for `N#C/C(=C\c1ccccc1O)C(=O)Nc1sc2c(c1C(N)=O)CCCC2` [CBK263644] was 101%.
Consider `Cc1ccc(CSCCNC(=O)/C=C/c2ccccc2)cc1` [CBK263985], for which the viability at 28.5 h, 10 µM turned out to be 95.3%.
For `CCn1nc(C)c(CNC(=O)N(Cc2ccccn2)CC(C)C)c1C` [CBK304193], the viability at 28.5 h, 10 µM came to 92.1%.
On to `COc1nccnc1N1CCN(CCCn2c(=O)[nH]c3ccccc32)CC1` [CBK084226], for which the viability at 28.5 h, 10 µM came to 95.8%.
The value for `CC(=O)Nc1ccc(-c2cncc(NC3CCC(O)CC3)n2)cc1` (stereo not shown) [CBK065886] was 93.9%; that for `CN(CCN1CCCCC1)C(=O)Cn1ccnc1-c1ccccc1` [CBK281900] was 91.3%.
Take `O=C(Cn1c2ccccc2n2ncnc12)c1ccc(-c2ccccc2)cc1` [CBK263097]: the viability at 28.5 h, 10 µM amounted to 106%.
Regarding `CSc1nnc(-c2ccc(Br)cc2)o1` [CBK026502], the viability at 28.5 h, 10 µM turned out to be 91.9%.
In the case of `Cc1cc(C)nc(N2CCC(CC(=O)N3CCCCC3CN3CCCC3)CC2)n1` (stereo not shown) [CBK286254] it was 95.6%.
The value for `O=C(CN1CCC(C(=O)NC(c2ccccc2)c2ccsc2)CC1)c1ccc(F)cc1` (stereo not shown) [CBK148432] was 86.9%; that for `COc1cnc(-c2ccccc2OC)c(NC(C)=O)n1` [CBK145259] was 89.1%; that for `O=C(C[C@@H]1O[C@H](CNS(=O)(=O)c2ccccc2)[C@@H](O)[C@H]1O)N1CCCC1` [CBK288909] was 108%.
For the compound `CCOc1ccc(NC(=O)Cn2c3c(c(-c4ccccc4)cc2=O)CCCC3)cc1` [CBK294457], the viability at 28.5 h, 10 µM was 85.8%.
As for `Cc1csc2c(N3CCC(OCCN4CCCC4)CC3)ncnc12` [CBK304095], the viability at 28.5 h, 10 µM was 84%.
The value for `O=c1[nH]c(N2CCC3(CC2)OCCO3)nc2c(-c3ccccc3Cl)csc12` [CBK291128] was 114%; that for `CC1CCc2nn(CCNC(=O)c3cccs3)c(=O)cc2C1` (stereo not shown) [CBK284483] was 97.4%; that for `Cc1cccc(-c2csc3c(=O)[nH]c(N4CCC(C(=O)NCCc5cccnc5)CC4)nc23)c1` [CBK215627] was 94%.
The value for `NC(=O)c1ccccc1NC(=O)CN(c1cccc(Br)c1)S(=O)(=O)c1ccccc1` [CBK265263] was 92.1%.
In the case of `CN(CC1(C)COC1)C(=O)C(c1ccc(F)cc1)N(C)C` (stereo not shown) [CBK281722] it was 107%; in that of `CC(=O)N[C@H](C)Cn1nnc2ccccc21` [CBK282246], 88%; in that of `O=S(=O)(c1ccccc1C(F)(F)F)n1ccc2c(N3CCNCC3)nccc21` [CBK045605C], 99.5%.
In the case of `CS(=O)(=O)c1ccc(Cn2ccnc(OC3CCN(C(=O)c4ccc(C#N)cc4)CC3)c2=O)cc1` [CBK161804], the viability at 28.5 h, 10 µM was found to be 92.4%.
The value for `O=C(NCc1cccnc1)c1ccc2c(c1)C(=O)N(Cc1ccco1)C2=O` [CBK269675] was 88.6%.
`Nc1ccc(-c2cncc(NCc3ccccc3)n2)cc1` [CBK065578]: the viability at 28.5 h, 10 µM was 109%.
On to `c1ccc(-c2cc(CC3(NCc4cc5ccccc5o4)COC3)no2)nc1` [CBK289239], for which the viability at 28.5 h, 10 µM came out at 93.4%.
The value for `O=c1[nH]c2ccc(NC(=S)NCc3ccccc3)cc2[nH]1` [CBK296099] was 93.8%.
In the case of `O=C(O)c1ccc(NS(=O)(=O)c2ccc(Br)c3ccccc23)cc1O` [CBK299772] it was 86.5%.
Regarding `COC(=O)c1ccsc1NS(=O)(=O)c1cc(F)c(Br)cc1F` [CBK039068], the viability at 28.5 h, 10 µM came to 96.5%.
The value for `O=C(NCCCn1ccnc1)c1ncoc1-c1ccccc1` [CBK283887] was 99%; that for `Cc1cc(CNC(=O)c2ccc3c(c2)OCO3)c2ccccc2n1` [CBK270014] was 72.1%.
Consider `Cc1cccc(C(=O)NNC(=O)COc2cccc3ccccc23)c1O` [CBK262993], for which the viability at 28.5 h, 10 µM is 87.7%.
`CN1CCN(CC(=O)Nc2ccc([N+](=O)[O-])cc2C(=O)c2ccccc2)CC1` [CBK265772]: the viability at 28.5 h, 10 µM was determined as 104%.
In the case of `CN1CCN(S(=O)(=O)c2ccc3c4c(cccc24)C(=O)N3)CC1` [CBK266647] it was 111%.
On to `O=[N+]([O-])c1ccc(CNCCc2c[nH]c3ccccc23)cc1` [CBK262275], for which the viability at 28.5 h, 10 µM came out at 80.4%.
On to `CN1C[C@@H](NS(C)(=O)=O)C[C@H]1c1nc(-c2ccc3c(c2)OCO3)no1` [CBK288875], for which the viability at 28.5 h, 10 µM worked out at 114%.
The value for `O=C(Nc1ccncc1)c1cc2cc(F)ccc2[nH]1` [CBK107346] was 103%.
In the case of `O=C(c1n[nH]nc1-c1ccccc1)N1CCCC(C(F)(F)F)C1` (stereo not shown) [CBK164228] it was 96.1%; in that of `CCOC(=O)c1[nH]c2ccccc2c1NC(=O)CS(=O)(=O)c1ccc(C)cc1` [CBK160162], 94.3%; in that of `Cn1cc(I)c(C(=O)NNC(=S)Nc2ccc(S(N)(=O)=O)cc2)n1` [CBK267066], 106%.
The value for `CS(=O)(=O)c1ccc(CN2CCOC3(CCN(C(=O)c4ccc5ccccc5c4)CC3)C2)cc1` [CBK161122A] was 104%.
On to `COc1cc2c(cc1OC)C(CCN1CCN(c3ccc(Cl)cc3)CC1)OCC(C)(C)C2` (stereo not shown) [CBK024051C], for which the viability at 28.5 h, 10 µM turned out to be 111%.
The value for `COc1ccc2[nH]cc([C@@H]3CCC[C@H](NC(=O)C4CCCO4)C3)c2c1` (stereo partly shown) [CBK284699] was 105%; that for `Cc1cccc(NC(=O)NCCCn2c(-c3ccncc3)nc3cccnc32)c1` [CBK288580] was 97.5%.
In the case of `O=C(O)C1CCCN(C(=O)NCC2COc3ccccc3O2)C1` (stereo not shown) [CBK161342] it was 121%; in that of `CC(=O)Nc1ccc(S(=O)(=O)N2CCN(CCO)CC2)cc1` [CBK262196], 95.1%.
In the case of `COc1ncc(-c2nccnc2N[C@H](C)c2ccccc2)c(OC)n1` [CBK036588] it was 83.7%; in that of `NCCCCCCNC(=O)c1c(O)c2ccccc2oc1=O` [CBK261071], 97.9%; in that of `Cc1ccc(-c2csc3nc(SCC(=O)NCC4CCCO4)n(-c4ccccc4)c(=O)c23)cc1` (stereo not shown) [CBK265610], 82.6%.
As to `FC(F)(F)Oc1ccc(-c2c[nH]c([C@@H]3COCCN3Cc3c[nH]cn3)n2)cc1` [CBK289303], the viability at 28.5 h, 10 µM amounted to 111%.
In the case of `CCCNC(=O)c1sc(Nc2ccc(Cl)cn2)nc1C` [CBK287850] it was 98.4%; in that of `COc1ccc2cc(Cn3nc(C(=O)O)c4ccccc4c3=O)c(Cl)nc2c1` [CBK295354], 88%; in that of `CN(C)CCN(C)Cc1ccc([N+](=O)[O-])cc1` [CBK261728], 110%.
Consider `CN(C)CCCNC(=O)COc1ccccc1` [CBK262189], for which the viability at 28.5 h, 10 µM turned out to be 88%.
The value for `CCOc1ccc(CN2CCN(C(=O)c3ccc(-c4ccccc4)cc3)CC2)cc1` [CBK263399] was 99.9%.
With `CC(=O)N1CCN(C(=O)c2nn(-c3ccc(F)cc3)c3c2CCCCC3)CC1` [CBK295293], the viability at 28.5 h, 10 µM came out at 107%.
Take `COc1ccc(C)cc1C1(CNC(=O)N2CCC(C)(O)C2)CCOCC1` (stereo not shown) [CBK305452]: the viability at 28.5 h, 10 µM amounted to 102%.
The value for `CCCCOC(=O)c1ccc(NC(=O)NCCc2cccs2)cc1` [CBK043381] was 86%; that for `N#Cc1cccc(Nc2cncc(-c3cccs3)n2)c1` [CBK066030] was 95.4%.
In the case of `CN(C)c1cccc2c(S(=O)(=O)n3c(=O)n(CCc4c[nH]c5ccccc45)c4ccccc43)cccc12` [CBK106511] it was 85.8%; in that of `c1ccc2c(c1)[nH]c1nc(SCCN3CCCCC3)nnc12` [CBK263249], 88.7%; in that of `c1ccc2cc(-c3cnc(N4CCOCC4)c4nccn34)ccc2c1` [CBK091307], 94.1%.
In the case of `Cc1nc2c(c(=O)[nH]1)CN(Cc1cccc(Oc3ccccc3)c1)CC2` [CBK283951] it was 104%.
For `N#Cc1ccc(C(=O)NCc2ccc(OC3CCNCC3)cc2)cc1` [CBK036358T], the viability at 28.5 h, 10 µM came to 89.5%.
`OC(COc1cccc2c1CCCC2)CN1CCC(O)(c2ccc(Br)cc2)CC1` (stereo not shown) [CBK003584]: the viability at 28.5 h, 10 µM was determined as 72%.
The value for `COc1ccc(CN(CCN2CCOCC2)C(=O)Nc2cccnc2)cc1OC` [CBK159379] was 93.2%; that for `COc1ccc(S(=O)(=O)N2Cc3ccccc3CC2C(=O)Nc2ccc(O)cc2)cc1OC` (stereo not shown) [CBK293967] was 90.9%; that for `NNc1nc(-c2ccc(Br)cc2)nc2ccccc12` [CBK262860] was 94.6%.
With `COc1cccc(/C=N/c2cc(S(=O)(=O)c3ccc(O)c(/N=C/c4cccc(OC)c4O)c3)ccc2O)c1O` [CBK261225], the viability at 28.5 h, 10 µM stood at 92.4%.
In the case of `CCN1C(=O)/C(=C/c2cc3c(cc2Cl)OCO3)NC1=S` [CBK265117] it was 96.5%.
In the case of `CCCn1cnc2cc(NC(=O)C3CCN(S(=O)(=O)c4ccc(F)cc4)C3)ccc21` (stereo not shown) [CBK285704] it was 85.8%; in that of `C(=N\N=C(/c1ccccc1)C12CN3CN(CN(C3)C1)C2)/c1ccc2c(c1)OCO2` [CBK261816], 102%; in that of `CN(C)CC(=O)Nc1cc(C(F)(F)F)ccc1Cl` [CBK307420], 87.2%.
